# Results: paper PMC4961418, “A Selective Irreversible Inhibitor of Furin Does Not Prevent Pseudomonas Aeruginosa Exotoxin A-Induced Airway Epithelial Cytotoxicity” (PLoS ONE, 2016)
# Side chains are listed from the residue outwards. Peptide text beside a SMILES is read from it. * marks the point of attachment. Biotin = O=C1N[C@H]2[C@H](CS[C@H]2CCCCC(=O)*)N1; X1 = N=C(N)NCCCC(N*)P(=O)(Oc1ccccc1)Oc1ccccc1; Palmitoyl = CCCCCCCCCCCCCCCC(=O)*; Ahx = NCCCCCC(=O)O
# Key:
# [1] = tested on: cell surface furin-like activity (CuFi-1 epithelial cells); assay: Epithelial cell surface furin-like activity assay; format: cell-based, human; conditions: 10 μM inhibitor, pERTKR substrate 50 μM applied to cell cultures
# Procedure: The CuFi-1 cell line was derived from human airway epithelium of a CF patient (F508del/F508del) transformed with a reverse transcriptase component of telomerase, hTERT and human papillomavirus type 16 E6 and E7 genes. Cells were grown as submerged cultures using bronchial epithelial growth medium (BEBM including a supplement pack) containing: epidermal growth factor, hydrocortisone, bovine pituitary extract, transferrin, bovine insulin, triiodothyronine, epinephrine, retinoic acid, penicillin-streptomycin (0.025 μg/ml), gentamycin ([…]) and amphotericin (25 μg/ml).
# Cell culture media was removed from CuFi-1 epithelial cells grown in 96 well microtitre plates (Thermo Scientific Sterilin; clear bottom, black walled) and replaced with PBS /+ inhibitor compounds (furin I or QUB-F1). The furin fluorogenic substrate (pERTKR -NH2Mec) was then applied directly to the cell cultures to give a final concentration of 50 μM. Cell surface proteolytic activity was measured by monitoring the formation of–NH2Mec at λex 360 nm and λem 480 nm using a 5 mm orbital scan every 60 s over a 1 h period (FLUOstar Optima microplate reader; BMG Labtech).
# Fig 4 Effect of furin inhibitors on PEA-induced epithelial cell toxicity. (A) Cell toxicity (%) induced by 2 μg/ml PEA (24 h) was measured in the presence or absence of furin I or QUB-F1. Data represent mean ± s.e.m. *P<0.05. […]
# recombinant human furin = target: T1, recombinant human furin (Homo sapiens, UniProt P09958); assay: Second order rate constant determination, steady-state fluorimetric assay (pERTKR-NH2Mec); format: biochemical; conditions: irreversible inhibitor kinetics, 50 μM pERTKR-NH2Mec, 37°C, pH 7.4
# T1 construct: purchased R&D Systems
# Procedure: A range of final inhibitor concentrations (at least 5) were prepared from a 10 mM stock solution of QUB-F1 (in N,N-dimethyformamide (DMF)). The fluorogenic substrate, p-Glu-Arg-Thr-Lys-Arg-NH2Mec (pERTKR-AMC), was diluted in assay buffer (25 mM Tris/HCl containing 1 mM CaCl2, pH 7.4) and used at a fixed concentration of 50 μM throughout. All inhibition assays were performed in microtitre plates maintained at 37°C in a final volume of 100 μl. The reaction was initiated by the addition of recombinant human furin (0.01 μg/well) and the rate of substrate hydrolysis continuously recorded at λex 360 nm, λem 480 nm, over a period of 90 minutes using a FLUOstar Optima microplate reader (BMG Labtech). The resultant inhibition progress curve for QUB-F1 was then analysed according to the kinetic models developed by Tian and Tsou and Walker and Elmore, for irreversible inhibitors, using GRAFIT (Erithacus Software). The inhibitor constant Ki, the apparent first order rate constant k3, and over all second-order rate constant (k3/Ki) for QUB-F1 against furin was determined, from a plot of 1/A against [I] (where A is the apparent second-order rate constant for irreversible inhibition determined for each inhibitor concentration [I]). The determination of Km and Vmax were also determined separately by fitting initial rates of hydrolysis to substrate concentration, according to Michaelis-Menten kinetics, also using GRAFIT (Erithacus Software). The inhibitor constant Ki, the apparent first order rate constant k3, and the overall second-order rate constant (k3/Ki) for QUB-F1 against furin were determined, from a plot of 1/A against [I] (where A is the apparent second-order rate constant for irreversible inhibition determined for each inhibitor concentration [I]).
# The ability of QUB-F1 to inhibit recombinant human furin was assessed using a steady-state fluorimetric assay employing the cognate fluorescent substrate (pERTKR-NH2Mec). The k3, Ki and k3/Ki values where determined as follows: Ki 9.33 (± 0.32) x 10^−7 M, k3 0.016 (± 0.004) min^-1 and k3/Ki […] M^-1 min^-1. […]
# T1 sequence (P09958 108-794): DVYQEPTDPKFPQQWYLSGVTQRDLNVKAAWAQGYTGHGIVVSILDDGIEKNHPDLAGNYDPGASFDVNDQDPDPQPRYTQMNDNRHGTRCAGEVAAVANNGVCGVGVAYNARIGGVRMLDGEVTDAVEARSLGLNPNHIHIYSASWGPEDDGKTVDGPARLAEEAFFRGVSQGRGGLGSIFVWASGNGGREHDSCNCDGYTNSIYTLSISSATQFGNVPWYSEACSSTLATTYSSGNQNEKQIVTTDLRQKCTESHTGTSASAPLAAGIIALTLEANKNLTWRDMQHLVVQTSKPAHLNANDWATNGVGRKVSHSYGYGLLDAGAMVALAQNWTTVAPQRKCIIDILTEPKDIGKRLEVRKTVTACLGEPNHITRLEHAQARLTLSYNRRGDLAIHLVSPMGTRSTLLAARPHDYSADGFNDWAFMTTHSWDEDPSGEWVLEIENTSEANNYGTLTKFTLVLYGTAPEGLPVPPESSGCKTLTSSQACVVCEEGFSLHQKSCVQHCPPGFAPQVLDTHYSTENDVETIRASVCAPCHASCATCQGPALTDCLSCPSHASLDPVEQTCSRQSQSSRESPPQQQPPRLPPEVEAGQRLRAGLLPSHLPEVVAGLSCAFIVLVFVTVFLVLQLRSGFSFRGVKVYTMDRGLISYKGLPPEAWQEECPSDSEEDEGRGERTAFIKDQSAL
smiles,measurement,setting,value
"CCCCCCCCCCCCCCCC(=O)N[C@@H](CCCCNC(=O)CCCCCNC(=O)CCCC[C@@H]1SC[C@@H]2NC(=O)N[C@@H]21)C(=O)N[C@@H](CCCNC(=N)N)C(=O)N[C@H](C(=O)N[C@@H](CCCCN)C(=O)NC(CCCNC(=N)N)P(=O)(Oc1ccccc1)Oc1ccccc1)C(C)C (stereo partly drawn) [QUB-F1, N^α-Pal-N^ω-(Biotinyl-Ahx)-Lys-RVKR^P(OPh)2] (Palmitoyl-K([Ahx-Biotin])RVK-X1)",inhibition of cell surface furin-like activity,[1],inhibited cell surface furin-like activity to the same extent as furin I
same,Ki,recombinant human furin,933 nM
same,k3 (apparent first order rate constant),recombinant human furin,0.016 (± 0.004) min^-1
same,kinact/KI,recombinant human furin; read-out: k3/Ki (overall second-order rate constant) (converted),342 M⁻¹ s⁻¹
